The target of experiment [1] is T1, κ opioid receptor (Homo sapiens (Human), UniProt P41145). Nature of the experiment: κ-opioid receptor radioligand dose-displacement binding assay ([3H]-U69,593). Particulars: binding assays using HEK-293 cells. The protocol:
Membranes from HEK-293 cells, CHO or U-2 OS cells expressing the recombinant human κ opioid receptor (κ) were prepared by lysing cells in ice cold hypotonic buffer (2.5 mM MgCl2, 50 mM HEPES, pH 7.4) (10 mL/10 cm dish) followed by homogenization with a tissue grinder/Teflon pestle. Membranes from a cell line naturally expressing kappa opioid receptor can also be used. Membranes were collected by centrifugation at 30,000×g for 15 min at 4° C. and pellets were resuspended in hypotonic buffer to a final concentration of 1-3 mg/mL. Protein concentrations were determined using the BioRad protein assay reagent with bovine serum albumen as standard. Aliquots of K receptor membranes were stored at −80° C.
Radioligand dose displacement assays used 0.4 nM [^3H]-U69,593 (GE Healthcare, Piscataway, N.J.; 40 Ci/mmole) with 15 μg membrane protein (recombinant κ opioid receptor expressed in HEK 293 cells; in-house prep) in a final volume of 200 μl binding buffer (5% DMSO, 50 mM Trizma base, pH 7.4). Non-specific binding was determined in the presence of 10 μM unlabeled naloxone or U69,593. All reactions were performed in 96-well polypropylene plates for 1 hour at a temperature of about 25° C. Binding reactions were terminated by rapid filtration onto 96-well Unifilter GF/C filter plates (Perkin Elmer, Shelton, Conn.) presoaked in 0.5% polyethylenimine (Sigma). Harvesting was performed using a 96-well tissue harvester (Perkin Elmer, Shelton, Conn.) followed by five filtration washes with 200 μl ice-cold binding buffer. Filter plates were subsequently dried at 50° C. for 1-2 hours. Fifty μl/well scintillation cocktail (Perkin Elmer, Shelton, Conn.) was added and plates were counted in a Packard Top-Count for 1 min/well.
(§1) In TABLE 1, binding affinity of certain Compounds of the Invention to the μ- and κ-opioid receptors was determined as described above for binding assays using HEK-293 cells.

For the next experiment, the target named is μ-opioid receptor (Homo sapiens (Human), UniProt P35372). The experiment can be described thus: μ-opioid receptor radioligand dose-displacement binding assay ([3H]-diprenorphine). The note with it: binding assays using HEK-293 cells. The protocol:
Radioligand dose-displacement binding assays for μ-opioid receptors used 0.3 nM [^3H]-diprenorphine (Perkin Elmer, Shelton, Conn.), with […] membrane protein/well in a final volume of 500 μl binding buffer (10 mM MgCl2, 1 mM EDTA, 5% DMSO, 50 mM HEPES, pH 7.4). Reactions were carried out in the absence or presence of increasing concentrations of unlabeled naloxone. All reactions were conducted in 96-deep well polypropylene plates for 2 hours at room temperature. Binding reactions were terminated by rapid filtration onto 96-well Unifilter GF/C filter plates (Perkin Elmer, Shelton, Conn.), presoaked in 0.5% polyethylenimine using a 96-well tissue harvester (Perkin Elmer, Shelton, Conn.) followed by performing three filtration washes with 500 μl of ice-cold binding buffer. Filter plates were subsequently dried at 50° C. for 2-3 hours. BetaScint scintillation cocktail (Perkin Elmer, Shelton, Conn.) was added (50 μl/well), and plates were counted using a Packard Top-Count for 1 min/well. The data were analyzed using the one-site competition curve fitting functions in GraphPad PRISM™ v. 3.0 or higher (San Diego, Calif.), or an in-house function for one-site competition curve-fitting.
as §1

Experiment [2] has as its target T1, κ opioid receptor. The experiment can be described thus: κ-opioid receptor [35S]GTPγS functional assay. Type of experiment: biochemical. The protocol:
Functional [^35S]GTPγS binding assays were conducted as follows. κ opioid receptor membrane solution was prepared by sequentially adding final concentrations of 0.026 μg/μl κ membrane protein (in-house), 10 μg/mL saponin, 3 μM GDP and 0.20 nM [^35S]GTPγS to binding buffer (100 mM NaCl, 10 mM MgCl2, 20 mM HEPES, pH 7.4) on ice. The prepared membrane solution (190 μl/well) was transferred to 96-shallow well polypropylene plates containing 10 μl of 20× concentrated stock solutions of agonist prepared in DMSO. Plates were incubated for 30 min at a temperature of about 25° C. with shaking. Reactions were terminated by rapid filtration onto 96-well Unifilter GF/B filter plates (Perkin Elmer, Shelton, Conn.) using a 96-well tissue harvester (Packard) and followed by three filtration washes with 200 μl ice-cold binding buffer (10 mM NaH2PO4, 10 mM Na2HPO4, pH 7.4). Filter plates were subsequently dried at 50° C. for 2-3 hours. Fifty μl/well scintillation cocktail (Perkin Elmer, Shelton, Conn.) was added and plates were counted in a Packard Top-Count for 1 min/well.
κ GTP EC50 is the concentration of a compound providing 50% of the maximal response for the compound at a K receptor.
κ GTP Emax (%) is the maximal effect elicited by a compound relative to the effect elicited by U69,593.
In TABLE 2, activity response of certain Compounds of the Invention to the μ- and κ-opioid receptors was determined as described above for functional assays using U-2 OS cells.
A general note: GTPγS is a poorly hydrolysed GTP analogue; its binding reports G protein activation.

[3] abbreviates: bound given in μM, read-out: Opioid Receptor Ki κ.
The mark [4] stands for this setting: bound given in μM, read-out: Opioid Receptor Ki μ.
The mark [5] stands for this setting: read-out: Opioid Receptor Ki (nM) κ.
Where [6] appears, read: read-out: Opioid Receptor Ki (nM) μ.

Read-outs that look alike come from different tables or passages of the source.

The term Ki denotes the dissociation constant of the complex between target and ligand, obtained from inhibition or displacement. In the case of `COc1ccc2c3c1O[C@@H]1[C@]34CCN(CC3CC3)[C@H]([C@@H]2O)[C@]4(O)CC[C@]12NC(=O)NC2=O` (stereo in doubt) [Compound 9, (4S,4′R,4a′S,7a′R,12b′S,13′R)-3′-(cyclopropylmethyl)-4a′,13′-dihydroxy-9′-methoxy-2′,3′,4′,4a′,5′,6′-hexahydro-1′H,7a′H-spiro[imidazazolidine-4,7′-[4,12]methanobenzofuro[3,2-e]isoquinoline]-2,5-dione], the Ki at κ opioid receptor [1] (setting [3]) and at μ-opioid receptor (setting [4]) was greater than 20 µM in each case.
Turning to `COc1ccc2c(c1)[C@]13CCN(CC4CC4)[C@H](C2=O)[C@]1(O)CC[C@@]1(C3)NC(=O)NC1=O` [Compound 6, (4bR,4′S,8aS,9S)-11-(cyclopropylmethyl)-8a-hydroxy-3-methoxy-7,8,8a,9-tetrahydrospiro[9,4b-(epiminoethano)phenanthrene-6,4′-imidazolidine]-2′,5′,10(5H)-trione], the figures for the Ki at κ opioid receptor [1] (setting [5]) and at μ-opioid receptor (setting [4]) were 1.05 ± 0.0846 µM and greater than 20 µM, respectively.
With `COc1ccc2c(c1)[C@]13CCN(CC4CC4)[C@H]([C@@H]2O)[C@]1(O)CC[C@@]1(C3)NC(=O)NC1=O` [Compound 7, (4bR,4′S,8aS,9R,10R)-11-(cyclopropylmethyl)-8a,10-dihydroxy-3-methoxy-5,7,8,8a,9,10-hexahydrospiro[9,4b-(epiminoethano)phenanthrene-6,4′-imidazolidine]-2′,5′-dione], the Ki on κ opioid receptor [1] (setting [3]) and on μ-opioid receptor (setting [4]) was greater than 20 µM in each case.
In the case of `COc1ccc2c3c1O[C@@H]1[C@]34CCN(CC3CC3)[C@H](C2=O)[C@]4(O)CC[C@]12NC(=O)NC2=O` [Compound 8, (4S,4′S,4a′S,7a′R,12b′S)-3′-(cyclopropylmethyl)-4a′-hydroxy-9′-methoxy-2′,3′,4′,4a′,5′,6′-hexahydro-1′H,7a′H-spiro[imidazolidine-4,7′-[4,12]methanobenzofuro[3,2-e]isoquinoline]-2,5,13′-trione], the Ki at κ opioid receptor [1] (setting [3]) and at μ-opioid receptor (setting [4]) was greater than 20 µM in each case.
For the compound `COc1ccc2c(c1)[C@]13CCN(CC4CC4)[C@H]([C@@H]2O)[C@@H]1CC[C@@]1(C3)NC(=O)NC1=O` [Compound 10, (4bS,4′S,8aR,9S,10R)-11-(cyclopropylmethyl)-10-hydroxy-3-methoxy-5,7,8,8a,9,10-hexahydrospiro[9,4b-(epiminoethano)phenanthrene-6,4′-imidazolidine]-2′,5′-dione], the Ki at κ opioid receptor [1] (setting [5]) was 3.58 ± 0.647 µM; at μ-opioid receptor (setting [4]), greater than 20 µM.
Consider `COc1ccc2c(c1)[C@]13CCN(C)[C@H](C2=O)[C@]1(O)CC[C@@]1(C3)NC(=O)NC1=O` [Compound 11, (4bR,4′S,8aS,9S)-8a-hydroxy-3-methoxy-11-methyl-7,8,8a,9-tetrahydrospiro [9,4b-(epiminoethano)phenanthrene-6,4′-imidazolidine]-2′,5′,10(5H)-trione], for which the Ki on κ opioid receptor [1] (setting [3]) and on μ-opioid receptor (setting [4]) was greater than 20 µM in each case.
On to `COc1ccc2c(c1)[C@]13CCN(C)[C@H]([C@@H]2O)[C@]1(O)CC[C@@]1(C3)NC(=O)NC1=O` [Compound 12, (4bR,4′S,8aS,9R,10R)-8a,10-dihydroxy-3-methoxy-11-methyl-5,7,8,8a,9,10-hexahydrospiro[9,4b-(epiminoethano)phenanthrene-6,4′-imidazolidine]-2′,5′-dione], for which the values for the Ki on κ opioid receptor [1] (setting [3]) and at μ-opioid receptor (setting [6]) were greater than 20 µM and 12.6 µM, respectively.
A word on the EC50: it is the concentration needed to bring the measured effect to its halfway point. Lower therefore signals an effect from little substance. The Emax is the greatest response seen or fitted, relative to the assay's reference. In the case of `O=C1NC(=O)[C@@]2(CC[C@@]3(O)[C@H]4[C@H](O)c5ccc(O)cc5[C@@]3(CCN4CC3CC3)C2)N1` [Compound 14, (4bR,4′S,8aS,9R,10R)-11-(cyclopropylmethyl)-3,8a,10-trihydroxy-5,7,8,8a,9,10-hexahydrospiro[9,4b-(epiminoethano)phenanthrene-6,4′-imidazolidine]-2′,5′-dione], the Ki on κ opioid receptor [1] (setting [5]) is 0.0781 ± 0.021 µM; at μ-opioid receptor (setting [6]), 1.02 ± 0.0521 µM. This compound showed a 50% effective concentration (EC50) on κ opioid receptor [2] of 0.183 ± 0.0173 µM. On κ opioid receptor [2] (functional assays using U-2 OS cells, relative to the effect elicited by U69,593), this compound came in with an Emax of 111 ± 2.91%.
In the case of `O=C1NC(=O)[C@@]2(CC[C@@]3(O)[C@H]4C(=O)c5ccc(O)c6c5[C@@]3(CCN4CC3CC3)[C@H]2O6)N1` [Compound 15, (4S,4′S,4a′S,7a′R,12b′S)-3′-(cyclopropylmethyl)-4a′,9′-dihydroxy-2′,3′,4′,4a′,5′,6′-hexahydro-1′H,7a′H-spiro [imidazolidine-4,7′-[4,12]methanobenzofuro [3,2-e]isoquinoline]-2,5,13′-trione], the Ki came to 2.52 ± 0.708 µM at κ opioid receptor [1] (setting [5]) and 15.4 ± 3.13 µM at μ-opioid receptor (setting [6]).
Take `O=C1NC(=O)[C@@]2(CC[C@@]3(O)[C@H]4[C@H](O)c5ccc(O)c6c5[C@@]3(CCN4CC3CC3)[C@H]2O6)N1` [Compound 16, (4S,4′R,4a′S,7a′R,12b′S,13′R)-3′-(cyclopropylmethyl)-4a′,9′,13′-trihydroxy-2′,3′,4′,4a′,5′,6′-hexahydro-1′H,7a′H-spiro[imidazolidine-4,7′-[4,12]methanobenzofuro [3,2-e]isoquinoline]-2,5-dione]: the Ki on κ opioid receptor [1] (setting [3]) and at μ-opioid receptor (setting [4]) was greater than 20 µM in each case.

The record behind these values is patent US9994571B2, “10-substituted morphinan hydantoins” (Purdue Pharma L.P., priority 2013, dated 2018).
